Reference: patent publication US20100267561A1, “HERBICIDAL PYRIDAZINONE DERIVATIVES” (priority 2007, published 2010)

Key:
Type in all cases: in vivo
[1] = system: umbrella sedge (Cyperus difformis); assay: Test D flooded paddy plant response; settings: Flood, scale 0 to 100 (0 no effect, 100 complete control), 21 days
Excerpt: (§1) Three plastic pots (ca. 16-cm diameter) for each application rate were partially filled with sterilized Tama silt loam soil comprising a 35:50:15 ratio of sand, silt and clay and 2.6% organic matter. Separate plantings for each of the three pots were as follows. Seeds from the U.S. of ducksalad (Heteranthera limosa), umbrella sedge (Cyperus difformis) and purple redstem (Ammannia coccinea), were planted into one 16-cm pot for each rate. Seeds from the U.S. of rice flatsedge (Cyperus iria), bearded (Brdd.) sprangletop (Leptochloa fascicularis), one stand of 9 or 10 water-seeded rice seedlings (Oryza sativa cv. ‘Japonica—M202’), and one stand of 6 transplanted rice seedlings (Oryza sativa cv. ‘Japonica—M202’) were planted into one 16-cm pot for each rate. Seeds from the U.S. of barnyardgrass (Echinochloa crus-galli), late watergrass (Echinochloa oryzicola), early watergrass (Echinochloa oryzoides) and junglerice (Echinochloa colona) were planted into one 16-cm pot for each rate. Plantings were sequential so that crop and weed species were at the 2.0 to 2.5-leaf stage at time of treatment.
(§2) Potted plants were grown in a greenhouse with day/night temperature settings of 30/27° C., and supplemental balanced lighting was provided to maintain a 16-hour photoperiod. Test pots were maintained in the greenhouse until test completion.
(§3) At time of treatment, test pots were flooded to 3 cm above the soil surface, treated by application of test compounds directly to the paddy water, and then maintained at that water depth for the duration of the test. Effects of treatments on rice and weeds were visually evaluated by comparison to untreated controls after 21 days. Plant response ratings, summarized in Table D, are based on a scale of 0 to 100 where 0 is no effect and 100 is complete control. A dash (-) response means no test result.

[2] = system: late watergrass (Echinochloa oryzicola); assay: Test D flooded paddy plant response; settings: Flood, scale 0 to 100 (0 no effect, 100 complete control), 21 days
Excerpt: as §1, §2, §3

[3] = system: transplanted rice seedlings (Oryza sativa cv. ‘Japonica—M202’); assay: Test D flooded paddy plant response; settings: Flood, scale 0 to 100 (0 no effect, 100 complete control), 21 days
Excerpt: as §1, §2, §3

[4] = system: ducksalad (Heteranthera limosa); assay: Test D flooded paddy plant response; settings: Flood, scale 0 to 100 (0 no effect, 100 complete control), 21 days
Excerpt: as §1, §2, §3

[5] = system: junglerice (Echinochloa colona); assay: Test D flooded paddy plant response; settings: Flood, scale 0 to 100 (0 no effect, 100 complete control), 21 days
Excerpt: as §1, §2, §3

[6] = system: purple redstem (Ammannia coccinea); assay: Test D flooded paddy plant response; settings: Flood, scale 0 to 100 (0 no effect, 100 complete control), 21 days
Excerpt: as §1, §2, §3

[7] = system: bearded (Brdd.) sprangletop (Leptochloa fascicularis); assay: Test D flooded paddy plant response; settings: Flood, scale 0 to 100 (0 no effect, 100 complete control), 21 days
Excerpt: as §1, §2, §3

[8] = system: early watergrass (Echinochloa oryzoides); assay: Test D flooded paddy plant response; settings: Flood, scale 0 to 100 (0 no effect, 100 complete control), 21 days
Excerpt: as §1, §2, §3

[9] = system: tropical (T.) spiderwort (Commelina benghalensis); assay: Test E pre-/postemergence plant response; settings: scale 0 to 100
Outline: (§4)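 Visual rating 0–100 vs untreated controls (0 = no effect, 100 = complete control) after 14–21 d greenhouse. Pre- and postemergence treatments; compound in non-phytotoxic solvent mix + surfactant. Post plants 2–18 cm, 1- to 4-leaf stage.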

[10] = system: Canada horseweed (Conyza canadensis); assay: Test E pre-/postemergence plant response; settings: Postemergence, scale 0 to 100
Outline: as §4

[11] = system: spanishneedles (Bidens bipinnata); assay: Test E pre-/postemergence plant response; settings: scale 0 to 100
Outline: as §4

[12] = system: common ragweed (Ambrosia elation); assay: Test E pre-/postemergence plant response; settings: scale 0 to 100
Outline: as §4

[13] = system: field bindweed (Convolvulus arvensis); assay: Test E pre-/postemergence plant response; settings: scale 0 to 100
Outline: as §4

CCCc1cc(-c2ccc(Cl)cc2)nn1-c1c(O)cnn(C)c1=O [Compound 43]
Plant response rating, Sedge, Umbrella ([1]; 16 g ai/ha): 0
Plant response rating, Sedge, Umbrella ([1]; 32 g ai/ha): 0
Plant response rating, Sedge, Umbrella ([1]; 64 g ai/ha): 0
Plant response rating, Sedge, Umbrella ([1]; 125 g ai/ha): 0
Plant response rating, Sedge, Umbrella ([1]; 250 g ai/ha): 0
Plant response rating, Watergrass, Late ([2]; 16 g ai/ha): 0
Plant response rating, Watergrass, Late ([2]; 32 g ai/ha): 0
Plant response rating, Watergrass, Late ([2]; 64 g ai/ha): 30
Plant response rating, Watergrass, Late ([2]; 125 g ai/ha): 65
Plant response rating, Watergrass, Late ([2]; 250 g ai/ha): 100
Plant response rating, Rice, Transplanted ([3]; 16 g ai/ha): 0
Plant response rating, Rice, Transplanted ([3]; 32 g ai/ha): 0
Plant response rating, Rice, Transplanted ([3]; 64 g ai/ha): 0
Plant response rating, Rice, Transplanted ([3]; 125 g ai/ha): 10
Plant response rating, Rice, Transplanted ([3]; 250 g ai/ha): 35
Plant response rating, Ducksalad ([4]; 16 g ai/ha): 0
Plant response rating, Ducksalad ([4]; 32 g ai/ha): 0
Plant response rating, Ducksalad ([4]; 64 g ai/ha): 0
Plant response rating, Ducksalad ([4]; 125 g ai/ha): 0
Plant response rating, Ducksalad ([4]; 250 g ai/ha): 0
Plant response rating, Junglerice ([5]; 16 g ai/ha): 0
Plant response rating, Junglerice ([5]; 32 g ai/ha): 0
Plant response rating, Junglerice ([5]; 64 g ai/ha): 60
Plant response rating, Junglerice ([5]; 125 g ai/ha): 100
Plant response rating, Junglerice ([5]; 250 g ai/ha): 100
Plant response rating, Redstem, Purple ([6]; 16 g ai/ha): 0
Plant response rating, Redstem, Purple ([6]; 32 g ai/ha): 0
Plant response rating, Redstem, Purple ([6]; 64 g ai/ha): 0
Plant response rating, Redstem, Purple ([6]; 125 g ai/ha): 0
Plant response rating, Redstem, Purple ([6]; 250 g ai/ha): 0
Plant response rating, Sprangletop, Brdd. ([7]; 16 g ai/ha): 0
Plant response rating, Sprangletop, Brdd. ([7]; 32 g ai/ha): 0
Plant response rating, Sprangletop, Brdd. ([7]; 64 g ai/ha): 0
Plant response rating, Sprangletop, Brdd. ([7]; 125 g ai/ha): 0
Plant response rating, Sprangletop, Brdd. ([7]; 250 g ai/ha): 20
Plant response rating, Watergrass, Early ([8]; 16 g ai/ha): 0
Plant response rating, Watergrass, Early ([8]; 32 g ai/ha): 0
Plant response rating, Watergrass, Early ([8]; 64 g ai/ha): 60
Plant response rating, Watergrass, Early ([8]; 125 g ai/ha): 70
Plant response rating, Watergrass, Early ([8]; 250 g ai/ha): 100

Cc1cc(-c2ccc(Cl)cc2)nn1-c1c(OS(=O)(=O)c2ccccc2)cnn(C)c1=O [Compound 35]
Plant response rating, Spiderwort, T. ([9]; 16 g ai/ha, Preemergence): 0
Plant response rating, Spiderwort, T. ([9]; 31 g ai/ha, Preemergence): 0
Plant response rating, Spiderwort, T. ([9]; 62 g ai/ha, Preemergence): 0
Plant response rating, Spiderwort, T. ([9]; Postemergence, 8 g ai/ha): 0
Plant response rating, Spiderwort, T. ([9]; Postemergence, 16 g ai/ha): 0
Plant response rating, Spiderwort, T. ([9]; Postemergence, 31 g ai/ha): 0
Plant response rating, Spiderwort, T. ([9]; Postemergence, 62 g ai/ha): 0

CCc1cc(-c2ccc(Cl)cc2)nn1-c1c(O)cnn(C)c1=O [Compound 21]
Plant response rating, Spiderwort, T. ([9]; 16 g ai/ha, Preemergence): 0
Plant response rating, Spiderwort, T. ([9]; 31 g ai/ha, Preemergence): 0
Plant response rating, Spiderwort, T. ([9]; 62 g ai/ha, Preemergence): 0
Plant response rating, Spiderwort, T. ([9]; Postemergence, 8 g ai/ha): 0
Plant response rating, Spiderwort, T. ([9]; Postemergence, 16 g ai/ha): 0
Plant response rating, Spiderwort, T. ([9]; Postemergence, 31 g ai/ha): 0
Plant response rating, Spiderwort, T. ([9]; Postemergence, 62 g ai/ha): 0
Plant response rating, Sedge, Umbrella ([1]; 16 g ai/ha): 0
Plant response rating, Sedge, Umbrella ([1]; 32 g ai/ha): 0
Plant response rating, Sedge, Umbrella ([1]; 64 g ai/ha): 0
Plant response rating, Sedge, Umbrella ([1]; 125 g ai/ha): 0
Plant response rating, Sedge, Umbrella ([1]; 250 g ai/ha): 0
Plant response rating, Watergrass, Late ([2]; 16 g ai/ha): 0
Plant response rating, Watergrass, Late ([2]; 32 g ai/ha): 30
Plant response rating, Watergrass, Late ([2]; 64 g ai/ha): 60
Plant response rating, Watergrass, Late ([2]; 125 g ai/ha): 100
Plant response rating, Watergrass, Late ([2]; 250 g ai/ha): 100
Plant response rating, Rice, Transplanted ([3]; 16 g ai/ha): 0
Plant response rating, Rice, Transplanted ([3]; 32 g ai/ha): 0
Plant response rating, Rice, Transplanted ([3]; 64 g ai/ha): 0
Plant response rating, Rice, Transplanted ([3]; 125 g ai/ha): 50
Plant response rating, Rice, Transplanted ([3]; 250 g ai/ha): 65
Plant response rating, Ducksalad ([4]; 16 g ai/ha): 0
Plant response rating, Ducksalad ([4]; 32 g ai/ha): 0
Plant response rating, Ducksalad ([4]; 64 g ai/ha): 0
Plant response rating, Ducksalad ([4]; 125 g ai/ha): 0
Plant response rating, Ducksalad ([4]; 250 g ai/ha): 0
Plant response rating, Junglerice ([5]; 16 g ai/ha): 0
Plant response rating, Junglerice ([5]; 32 g ai/ha): 70
Plant response rating, Junglerice ([5]; 64 g ai/ha): 100
Plant response rating, Junglerice ([5]; 125 g ai/ha): 100
Plant response rating, Junglerice ([5]; 250 g ai/ha): 100
Plant response rating, Redstem, Purple ([6]; 16 g ai/ha): 0
Plant response rating, Redstem, Purple ([6]; 32 g ai/ha): 0
Plant response rating, Redstem, Purple ([6]; 64 g ai/ha): 0
Plant response rating, Redstem, Purple ([6]; 125 g ai/ha): 0
Plant response rating, Redstem, Purple ([6]; 250 g ai/ha): 0
Plant response rating, Sprangletop, Brdd. ([7]; 16 g ai/ha): 30
Plant response rating, Sprangletop, Brdd. ([7]; 32 g ai/ha): 30
Plant response rating, Sprangletop, Brdd. ([7]; 64 g ai/ha): 80
Plant response rating, Sprangletop, Brdd. ([7]; 125 g ai/ha): 100
Plant response rating, Sprangletop, Brdd. ([7]; 250 g ai/ha): 100
Plant response rating, Watergrass, Early ([8]; 16 g ai/ha): 0
Plant response rating, Watergrass, Early ([8]; 32 g ai/ha): 40
Plant response rating, Watergrass, Early ([8]; 64 g ai/ha): 65
Plant response rating, Watergrass, Early ([8]; 125 g ai/ha): 100
Plant response rating, Watergrass, Early ([8]; 250 g ai/ha): 100

CCc1cc(-c2ccc(C(F)(F)F)cc2)nn1-c1c(OC(=O)OC(C)C)cnn(C)c1=O [Compound 12]
Plant response rating, Horseweed ([10]; 4 g ai/ha): 0
Plant response rating, Horseweed ([10]; 8 g ai/ha): 0
Plant response rating, Horseweed ([10]; 31 g ai/ha): 0
Plant response rating, Spanishneedles ([11]; 4 g ai/ha, Postemergence): 0
Plant response rating, Spanishneedles ([11]; 31 g ai/ha, Preemergence): 0
Plant response rating, Spanishneedles ([11]; Postemergence, 8 g ai/ha): 0
Plant response rating, Spanishneedles ([11]; Postemergence, 31 g ai/ha): 0
Plant response rating, Ragweed ([12]; 4 g ai/ha, Postemergence): 0
Plant response rating, Ragweed ([12]; 31 g ai/ha, Preemergence): 0
Plant response rating, Ragweed ([12]; Postemergence, 8 g ai/ha): 0
Plant response rating, Ragweed ([12]; Postemergence, 31 g ai/ha): 0
Plant response rating, Ragweed ([12]; Preemergence, 4 g ai/ha): 0
Plant response rating, Field Bindweed ([13]; 4 g ai/ha, Postemergence): 0
Plant response rating, Field Bindweed ([13]; 8 g ai/ha, Preemergence): 0
Plant response rating, Field Bindweed ([13]; 31 g ai/ha, Preemergence): 0
Plant response rating, Field Bindweed ([13]; Postemergence, 8 g ai/ha): 0
Plant response rating, Field Bindweed ([13]; Postemergence, 31 g ai/ha): 0
Plant response rating, Field Bindweed ([13]; Preemergence, 4 g ai/ha): 0
